Results as given in ChEMBL document CHEMBL5291721, “A preclinical secondary pharmacology resource illuminates target-adverse drug reaction associations of marketed drugs” (Nat Commun, 2023).

Legend:
[1] = molecular target: T1, Alpha-2A adrenergic receptor (Homo sapiens, UniProt P08913); assay type: functional, cell-based
T1 sequence (P08913 whole entry): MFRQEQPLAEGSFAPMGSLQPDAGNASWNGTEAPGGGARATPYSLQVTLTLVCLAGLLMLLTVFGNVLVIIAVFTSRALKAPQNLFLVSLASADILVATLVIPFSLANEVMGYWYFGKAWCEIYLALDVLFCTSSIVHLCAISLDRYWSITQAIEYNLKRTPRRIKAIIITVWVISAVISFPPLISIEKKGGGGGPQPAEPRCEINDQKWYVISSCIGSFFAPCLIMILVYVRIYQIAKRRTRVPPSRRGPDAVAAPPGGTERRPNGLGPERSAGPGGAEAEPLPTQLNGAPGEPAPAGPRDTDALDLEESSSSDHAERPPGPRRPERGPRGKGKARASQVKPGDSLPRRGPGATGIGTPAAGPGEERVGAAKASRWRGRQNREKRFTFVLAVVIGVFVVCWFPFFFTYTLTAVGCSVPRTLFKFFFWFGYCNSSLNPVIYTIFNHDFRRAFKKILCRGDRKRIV

[2] = molecular target: T2, 5-hydroxytryptamine receptor 1A (Homo sapiens, UniProt P08908); assay type: functional, cell-based
T2 sequence (P08908 whole entry): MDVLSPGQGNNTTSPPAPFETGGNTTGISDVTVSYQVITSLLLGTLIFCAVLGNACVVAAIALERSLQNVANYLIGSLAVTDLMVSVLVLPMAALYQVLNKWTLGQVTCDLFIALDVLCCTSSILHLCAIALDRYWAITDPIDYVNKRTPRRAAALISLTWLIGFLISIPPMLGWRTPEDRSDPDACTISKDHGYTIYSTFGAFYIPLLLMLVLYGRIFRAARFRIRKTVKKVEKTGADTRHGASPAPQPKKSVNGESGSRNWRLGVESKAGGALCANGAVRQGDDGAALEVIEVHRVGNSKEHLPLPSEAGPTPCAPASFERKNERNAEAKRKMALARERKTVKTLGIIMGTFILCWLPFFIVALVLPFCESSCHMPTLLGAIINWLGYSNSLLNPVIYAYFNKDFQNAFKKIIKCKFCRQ

[3] = molecular target: Beta-1 adrenergic receptor (Homo sapiens, UniProt P08588); assay type: functional
[4] = molecular target: Gamma-aminobutyric acid receptor subunit alpha-1 (Rattus norvegicus, UniProt P62813); assay type: functional
Vasopressin V1a receptor = Vasopressin V1a receptor (Homo sapiens, UniProt P37288)
[5] = molecular target: T3, Prostaglandin G/H synthase 1 (Rattus norvegicus, UniProt Q63921); assay type: functional
T3 sequence (Q63921 whole entry): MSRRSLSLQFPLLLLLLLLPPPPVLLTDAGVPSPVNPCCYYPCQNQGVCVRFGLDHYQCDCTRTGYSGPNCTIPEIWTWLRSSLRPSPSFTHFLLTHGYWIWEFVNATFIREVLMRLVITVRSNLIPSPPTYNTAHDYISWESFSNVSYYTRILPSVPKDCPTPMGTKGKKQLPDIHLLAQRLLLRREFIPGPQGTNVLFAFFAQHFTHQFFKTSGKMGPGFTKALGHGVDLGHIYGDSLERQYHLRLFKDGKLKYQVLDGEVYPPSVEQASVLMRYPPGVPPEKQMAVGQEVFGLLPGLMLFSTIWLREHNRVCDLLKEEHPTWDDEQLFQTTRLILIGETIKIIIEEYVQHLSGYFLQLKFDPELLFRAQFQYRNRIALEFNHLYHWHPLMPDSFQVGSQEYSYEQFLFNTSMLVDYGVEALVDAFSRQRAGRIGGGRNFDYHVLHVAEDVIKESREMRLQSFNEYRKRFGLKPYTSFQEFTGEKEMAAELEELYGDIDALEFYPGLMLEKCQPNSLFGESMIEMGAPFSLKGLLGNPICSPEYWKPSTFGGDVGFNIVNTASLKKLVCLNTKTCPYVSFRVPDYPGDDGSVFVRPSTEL

[6] = molecular target: T4, Muscarinic acetylcholine receptor M1 (Homo sapiens, UniProt P11229); assay type: functional
T4 sequence (P11229 whole entry): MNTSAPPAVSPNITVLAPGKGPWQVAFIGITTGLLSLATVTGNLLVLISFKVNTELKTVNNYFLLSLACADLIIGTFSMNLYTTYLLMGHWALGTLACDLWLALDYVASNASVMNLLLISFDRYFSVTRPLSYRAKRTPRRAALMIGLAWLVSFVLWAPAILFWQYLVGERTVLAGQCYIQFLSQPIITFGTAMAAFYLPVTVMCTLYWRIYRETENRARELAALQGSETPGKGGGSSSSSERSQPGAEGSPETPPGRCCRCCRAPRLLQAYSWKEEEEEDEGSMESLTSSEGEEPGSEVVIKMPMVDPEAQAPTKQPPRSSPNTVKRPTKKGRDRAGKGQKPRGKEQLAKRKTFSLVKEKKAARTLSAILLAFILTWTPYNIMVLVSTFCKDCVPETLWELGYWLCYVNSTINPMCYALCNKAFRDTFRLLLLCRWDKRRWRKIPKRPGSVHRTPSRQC

Histamine H1 receptor = Histamine H1 receptor (Homo sapiens, UniProt P35367)
[7] = molecular target: T5, Alpha-2B adrenergic receptor (Homo sapiens, UniProt P18089)
T5 sequence (P18089 whole entry): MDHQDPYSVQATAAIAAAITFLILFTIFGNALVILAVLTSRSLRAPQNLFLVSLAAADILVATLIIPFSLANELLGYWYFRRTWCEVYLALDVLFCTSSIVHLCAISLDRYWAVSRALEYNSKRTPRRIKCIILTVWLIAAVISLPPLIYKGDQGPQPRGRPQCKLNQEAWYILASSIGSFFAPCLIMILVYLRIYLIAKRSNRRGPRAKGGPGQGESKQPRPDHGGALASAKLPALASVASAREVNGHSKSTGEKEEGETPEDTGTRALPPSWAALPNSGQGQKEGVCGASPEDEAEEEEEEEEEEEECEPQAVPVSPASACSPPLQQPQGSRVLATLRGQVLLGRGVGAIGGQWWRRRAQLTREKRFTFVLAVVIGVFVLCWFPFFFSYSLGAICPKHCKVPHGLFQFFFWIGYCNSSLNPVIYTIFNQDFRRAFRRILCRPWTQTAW
Further: assay procedure not described here.

Chain of Gamma-aminobutyric acid receptor subunit alpha-1 (P62813 whole entry): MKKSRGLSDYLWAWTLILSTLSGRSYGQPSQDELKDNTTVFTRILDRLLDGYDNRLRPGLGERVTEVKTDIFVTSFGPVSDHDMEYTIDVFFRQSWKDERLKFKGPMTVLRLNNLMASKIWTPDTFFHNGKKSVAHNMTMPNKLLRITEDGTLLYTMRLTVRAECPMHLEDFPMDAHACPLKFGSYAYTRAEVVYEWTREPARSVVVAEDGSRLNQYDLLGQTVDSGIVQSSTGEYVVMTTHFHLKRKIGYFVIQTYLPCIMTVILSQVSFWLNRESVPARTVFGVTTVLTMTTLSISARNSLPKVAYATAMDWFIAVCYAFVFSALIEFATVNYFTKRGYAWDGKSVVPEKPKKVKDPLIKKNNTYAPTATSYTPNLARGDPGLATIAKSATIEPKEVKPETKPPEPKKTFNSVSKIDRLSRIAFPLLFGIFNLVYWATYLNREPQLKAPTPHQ
Chain of Beta-1 adrenergic receptor (P08588 whole entry): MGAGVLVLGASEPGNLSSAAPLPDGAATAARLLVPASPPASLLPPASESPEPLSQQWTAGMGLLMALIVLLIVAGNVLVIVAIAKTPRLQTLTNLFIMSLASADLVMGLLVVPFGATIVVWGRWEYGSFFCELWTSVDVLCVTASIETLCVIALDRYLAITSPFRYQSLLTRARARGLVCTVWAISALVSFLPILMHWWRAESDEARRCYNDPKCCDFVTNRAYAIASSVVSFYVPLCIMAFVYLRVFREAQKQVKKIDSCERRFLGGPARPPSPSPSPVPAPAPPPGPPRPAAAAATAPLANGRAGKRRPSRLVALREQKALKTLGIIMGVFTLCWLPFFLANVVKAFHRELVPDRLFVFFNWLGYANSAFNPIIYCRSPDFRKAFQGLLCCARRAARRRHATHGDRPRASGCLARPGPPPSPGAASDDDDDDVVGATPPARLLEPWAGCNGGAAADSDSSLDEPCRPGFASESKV
Chain of Vasopressin V1a receptor (P37288 whole entry): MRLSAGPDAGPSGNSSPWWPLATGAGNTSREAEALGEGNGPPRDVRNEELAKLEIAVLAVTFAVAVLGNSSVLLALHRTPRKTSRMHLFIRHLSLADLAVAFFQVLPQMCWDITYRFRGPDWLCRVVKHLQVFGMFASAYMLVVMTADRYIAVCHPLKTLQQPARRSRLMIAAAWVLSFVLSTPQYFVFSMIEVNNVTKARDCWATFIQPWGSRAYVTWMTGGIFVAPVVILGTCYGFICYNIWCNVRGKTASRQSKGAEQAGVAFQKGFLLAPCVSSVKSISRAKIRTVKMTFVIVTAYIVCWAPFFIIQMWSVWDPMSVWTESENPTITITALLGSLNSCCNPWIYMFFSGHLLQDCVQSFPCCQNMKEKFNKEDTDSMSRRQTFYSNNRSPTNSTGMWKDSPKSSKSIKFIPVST
Chain of Histamine H1 receptor (P35367 whole entry): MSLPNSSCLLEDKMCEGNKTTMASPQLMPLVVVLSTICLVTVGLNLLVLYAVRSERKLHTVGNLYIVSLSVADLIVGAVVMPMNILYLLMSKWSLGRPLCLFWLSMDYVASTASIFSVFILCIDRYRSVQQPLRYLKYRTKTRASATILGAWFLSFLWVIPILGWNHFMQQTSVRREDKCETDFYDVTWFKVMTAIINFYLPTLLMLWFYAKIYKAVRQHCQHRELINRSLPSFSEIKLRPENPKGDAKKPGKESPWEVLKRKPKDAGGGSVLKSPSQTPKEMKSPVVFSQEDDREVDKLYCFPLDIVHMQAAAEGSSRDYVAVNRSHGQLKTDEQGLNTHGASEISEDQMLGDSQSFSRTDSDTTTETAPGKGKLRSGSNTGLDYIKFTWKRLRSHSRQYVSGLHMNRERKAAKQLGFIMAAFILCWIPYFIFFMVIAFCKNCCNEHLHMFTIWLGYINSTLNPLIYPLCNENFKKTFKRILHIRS

| Compound | AC50 [1] [µM] | AC50 [2] [µM] | AC50 [3] [µM] | AC50 [4] [µM] | AC50 (Vasopressin V1a receptor) [µM] | AC50 [5] [µM] | AC50 [6] [µM] | AC50 (Histamine H1 receptor) [µM] | AC50 [7] [µM] |
| --- | --- | --- | --- | --- | --- | --- | --- | --- | --- |
| C[C@]12C=CC(=O)C=C1CC[C@@H]1[C@@H]2[C@@H](O)C[C@@]2(C)[C@H]1CC[C@]2(O)C(=O)CO [PREDNISOLONE] | > 10 | > 10 | > 10 | > 10 | > 30 | > 30 |  |  |  |
| CCC(=O)c1ccc2c(c1)N(CC(C)N(C)C)c1ccccc1S2 (configuration not stated) [PROPIOMAZINE] | > 10 | > 30 | > 10 | > 10 | > 10 | > 10 | 0.12 | 0.034 | 0.32 |
| CC(C)(C)NCC(O)COc1ccccc1C#N (configuration not stated) [BUNITROLOL] | > 30 | > 30 |  | > 30 |  |  | > 30 | > 30 | 26 |
| COc1cccc2c1C(=O)c1c(O)c3c(c(O)c1C2=O)C[C@@](O)(C(=O)CO)C[C@@H]3O[C@H]1C[C@H](N)[C@H](O)[C@H](C)O1 [DOXORUBICIN] | > 10 | > 30 | > 30 | > 10 | > 30 | > 30 |  |  |  |
| CC1(C)O[C@@H]2C[C@H]3[C@@H]4CCC5=CC(=O)C=C[C@]5(C)[C@@]4(F)[C@@H](O)C[C@]3(C)[C@]2(C(=O)CO)O1 [TRIAMCINOLONE ACETONIDE] | > 30 | > 30 | > 30 | > 30 |  | > 30 |  |  |  |
| COc1ccc(C(=O)c2ccccc2)c(O)c1 [OXYBENZONE] | > 30 | > 30 |  | > 30 |  |  | > 30 | 17 | > 30 |
| C[C@]12CCC(=O)C=C1[C@@H]1C[C@@H]1[C@H]1[C@@H]3[C@@H]4C[C@@H]4[C@@]4(CCC(=O)O4)[C@@]3(C)CC[C@@H]12 [DROSPIRENONE] |  | > 30 | > 30 | > 30 | > 30 | > 30 | > 30 | > 30 | > 30 |
| CN(C)CCC(O)(c1ccccc1)c1ccccc1Cl (configuration not stated) [CHLOPHEDIANOL] | > 10 | > 10 | > 10 | > 10 | > 10 | > 10 | > 10 | > 10 | > 10 |
| Cc1ccc(O)c([C@H](CCN(C(C)C)C(C)C)c2ccccc2)c1 [TOLTERODINE] | > 10 | > 10 | > 10 | > 10 |  |  | 0.0051 | 4.06 | > 10 |
